# According to the supplement of paper PMC11061612:
# How the values were obtained:
# Selumetinib = compound: Cn1cnc2c(F)c(Nc3ccc(Br)cc3Cl)c(C(=O)NOCCO)cc21 [Selumetinib]; settings: max 10 µM
# How it was run: (§1)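 Plates with 1536 wells received cancer cell lines in 7.5 μl of DMEM/F12 or RPMI containing 10% FBS. After 24 hours at 37°C and 5% CO2, cells were dosed for 72 hours with final DMSO typically 0.2%, and viability was read by CellTiter-Glo 2.0 luminescence scaled between blank-well and DMSO-well means. The single-agent IC50 was taken from a logistic fit of the dose responses made with a non-linear mixed effects model, that logistic curve having two parameters.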
# Savolitinib = compound: C[C@@H](c1ccc2nccn2c1)n1nnc2ncc(-c3cnn(C)c3)nc21 [Savolitinib]; settings: max 1 µM
# How it was run: as §1
# Crizotinib = compound: C[C@@H](Oc1cc(-c2cnn(C3CCNCC3)c2)cnc1N)c1c(Cl)ccc(F)c1Cl [Crizotinib]; settings: max 10 µM
# How it was run: as §1
# Taselisib = compound: Cc1nc(-c2cn3c(n2)-c2ccc(-c4cnn(C(C)(C)C(N)=O)c4)cc2OCC3)n(C(C)C)n1 [Taselisib]; settings: max 10 µM
# How it was run: as §1
# Dasatinib = compound: CC1=C(C(=CC=C1)Cl)NC(=O)C2=CN=C(S2)NC3=CC(=NC(=N3)C)N4CCN(CC4)CCO [Dasatinib]; settings: max 2 µM
# How it was run: as §1
# SG3199 = compound: CC1=CN2[C@@H](C1)C=NC3=CC(=C(C=C3C2=O)OC)OCCCCCOC4=C(C=C5C(=C4)N=C[C@@H]6CC(=CN6C5=O)C)OC [SG3199]; settings: max 0.001 µM
# How it was run: as §1
# SRA737 = compound: N#Cc1cnc(Nc2cc(NC[C@H]3CNCCO3)c(C(F)(F)F)cn2)cn1 [SRA737]; settings: max 10 µM
# How it was run: as §1
# Olaparib = compound: O=C(c1cc(Cc2n[nH]c(=O)c3ccccc23)ccc1F)N1CCN(C(=O)C2CC2)CC1 [Olaparib]; settings: max 10 µM
# How it was run: as §1
# 5-Fluorouracil = compound: O=c1[nH]cc(F)c(=O)[nH]1 [5-Fluorouracil]; settings: max 20 µM
# How it was run: as §1
# Prexasertib = compound: COc1cccc(OCCCN)c1-c1cc(Nc2cnc(C#N)cn2)n[nH]1 [Prexasertib]; settings: max 1 µM
# How it was run: as §1
# AZD5363 = compound: C1CN(CCC1(C(=O)N[C@@H](CCO)C2=CC=C(C=C2)Cl)N)C3=NC=NC4=C3C=CN4 [AZD5363]; settings: max 10 µM
# How it was run: as §1
# AZD2811 = compound: CCN(CCO)CCCOc1ccc2c(Nc3cc(CC(=O)Nc4cccc(F)c4)[nH]n3)ncnc2c1 [AZD2811]; settings: max 1 µM
# How it was run: as §1
# Etoposide = compound: COc1cc([C@@H]2c3cc4c(cc3[C@@H](O[C@@H]3O[C@@H]5CO[C@@H](C)O[C@H]5[C@H](O)[C@H]3O)[C@H]3COC(=O)[C@H]23)OCO4)cc(OC)c1O [Etoposide]; settings: max 10 µM
# How it was run: as §1
# Palbociclib = compound: CC(=O)c1c(C)c2cnc(Nc3ccc(N4CCNCC4)cn3)nc2n(C2CCCC2)c1=O [Palbociclib]; settings: max 10 µM
# How it was run: as §1
# Trametinib = compound: CC(=O)Nc1cccc(-n2c(=O)n(C3CC3)c(=O)c3c(Nc4ccc(I)cc4F)n(C)c(=O)c(C)c32)c1 [Trametinib]; settings: max 1 µM
# How it was run: as §1
# Doxorubicin = compound: COc1cccc2c1C(=O)c1c(O)c3c(c(O)c1C2=O)C[C@@](O)(C(=O)CO)C[C@@H]3O[C@H]1C[C@H](N)[C@H](O)[C@H](C)O1 [Doxorubicin]; settings: max 1 µM
# How it was run: as §1
# MK-2206 = compound: NC1(c2ccc(-c3nc4ccn5c(=O)[nH]nc5c4cc3-c3ccccc3)cc2)CCC1 [MK-2206]; settings: max 10 µM
# How it was run: as §1
# AZD6738 = compound: C[C@@H]1COCCN1C2=NC(=NC(=C2)C3(CC3)[S@](=N)(=O)C)C4=C5C=CNC5=NC=C4 [AZD6738]; settings: max 10 µM
# How it was run: as §1
# Gefitinib = compound: COc1cc2ncnc(Nc3ccc(F)c(Cl)c3)c2cc1OCCCN1CCOCC1 [Gefitinib]; settings: max 10 µM
# How it was run: as §1
# Alisertib = compound: COc1cc(Nc2ncc3c(n2)-c2ccc(Cl)cc2C(c2c(F)cccc2OC)=NC3)ccc1C(=O)O [Alisertib]; settings: max 10 µM
# How it was run: as §1
# AZD8186 = compound: C[C@@H](Nc1cc(F)cc(F)c1)c1cc(C(=O)N(C)C)cc2c(=O)cc(N3CCOCC3)oc12 [AZD8186]; settings: max 10 µM
# How it was run: as §1
# Lapatinib = compound: CS(=O)(=O)CCNCc1ccc(-c2ccc3ncnc(Nc4ccc(OCc5cccc(F)c5)c(Cl)c4)c3c2)o1 [Lapatinib]; settings: max 10 µM
# How it was run: as §1
# AZD5153 = compound: COc1nnc2ccc(N3CCC(c4ccc(OCCN5CCN(C)C(=O)[C@H]5C)cc4)CC3)nn12 [AZD5153]; settings: max 1 µM
# How it was run: as §1
# AZD1775 = compound: C=CCn1c(=O)c2cnc(Nc3ccc(N4CCN(C)CC4)cc3)nc2n1-c1cccc(C(C)(C)O)n1 [AZD1775]; settings: max 3 µM
# How it was run: as §1
# Carboplatin = compound: C1CC(C1)(C(=O)[O-])C(=O)[O-].N.N.[Pt+2] [Carboplatin]; settings: max 10 µM
# How it was run: as §1
# AZD0156 = compound: CN(C)CCCOc1ccc(-c2ccc3ncc4c(c3c2)n(C2CCOCC2)c(=O)n4C)cn1 [AZD0156]; settings: max 3 µM
# How it was run: as §1
# AZD7648 = compound: Cc1cc2ncnn2cc1Nc1ncc2c(n1)n(C1CCOCC1)c(=O)n2C [AZD7648]; settings: max 10 µM
# How it was run: as §1
# AZD5991 = compound: Cc1c2c(nn1C)CSCc1cc(n(C)n1)CSc1cc(c3ccccc3c1)OCCCc1c(C(=O)O)n(C)c3c-2c(Cl)ccc13 [AZD5991]; settings: max 1 µM
# How it was run: as §1
# AZD4320 = compound: CN(CC[C@H](CSC1=CC=CC=C1)NC2=C(C=C(C=C2)S(=O)(=O)NC(=O)C3=CC=C(C=C3)N4CCC(CC4)[C@H](C5=CC=CC=C5C6=CC=C(C=C6)Cl)O)S(=O)(=O)C(F)(F)F)CCO [AZD4320]; settings: max 1 µM
# How it was run: as §1
# Gemcitabine = compound: Nc1ccn([C@@H]2O[C@H](CO)[C@@H](O)C2(F)F)c(=O)n1 [Gemcitabine]; settings: max 0.3 µM
# How it was run: as §1
# [1] = compound: O=C(Nc1ccc2[nH]nc(-c3ccncc3)c2c1)[C@@H]1CCN(CC(=O)N2CCN(c3ccc(-c4ncccn4)cc3)CC2)C1; settings: max 5 µM
# How it was run: as §1
# Paclitaxel = compound: CC(=O)O[C@H]1C(=O)[C@@]2(C)[C@H]([C@H](OC(=O)c3ccccc3)[C@]3(O)C[C@H](OC(=O)[C@H](O)[C@@H](NC(=O)c4ccccc4)c4ccccc4)C(C)=C1C3(C)C)[C@]1(OC(C)=O)CO[C@@H]1C[C@@H]2O [Paclitaxel]; settings: max 3 µM
# How it was run: as §1
# Venetoclax = compound: CC1(C)CCC(CN2CCN(c3ccc(C(=O)NS(=O)(=O)c4ccc(NCC5CCOCC5)c([N+](=O)[O-])c4)c(Oc4cnc5[nH]ccc5c4)c3)CC2)=C(c2ccc(Cl)cc2)C1 [Venetoclax]; settings: max 1 µM
# How it was run: as §1
# SN-38 = compound: CCc1c2c(nc3ccc(O)cc13)-c1cc3c(c(=O)n1C2)COC(=O)[C@]3(O)CC [SN-38]; settings: max 0.3 µM
# How it was run: as §1
# AZD1390 = compound: CC(C)n1c(=O)n(C)c2cnc3cc(F)c(-c4ccc(OCCCN5CCCCC5)nc4)cc3c21 [AZD1390]; settings: max 0.3 µM
# How it was run: as §1
Cell Line,"IC50, cell viability 72 h (Selumetinib) [nM]","IC50, cell viability 72 h (Savolitinib) [nM]","IC50, cell viability 72 h (Crizotinib) [nM]","IC50, cell viability 72 h (Taselisib) [nM]","IC50, cell viability 72 h (Dasatinib) [nM]","IC50, cell viability 72 h (SG3199) [nM]","IC50, cell viability 72 h (SRA737) [nM]","IC50, cell viability 72 h (Olaparib) [nM]","IC50, cell viability 72 h (5-Fluorouracil) [nM]","IC50, cell viability 72 h (Prexasertib) [nM]","IC50, cell viability 72 h (AZD5363) [nM]","IC50, cell viability 72 h (AZD2811) [nM]","IC50, cell viability 72 h (Etoposide) [nM]","IC50, cell viability 72 h (Palbociclib) [nM]","IC50, cell viability 72 h (Trametinib) [nM]","IC50, cell viability 72 h (Doxorubicin) [nM]","IC50, cell viability 72 h (MK-2206) [nM]","IC50, cell viability 72 h (AZD6738) [nM]","IC50, cell viability 72 h (Gefitinib) [nM]","IC50, cell viability 72 h (Alisertib) [nM]","IC50, cell viability 72 h (AZD8186) [nM]","IC50, cell viability 72 h (Lapatinib) [nM]","IC50, cell viability 72 h (AZD5153) [nM]","IC50, cell viability 72 h (AZD1775) [nM]","IC50, cell viability 72 h (Carboplatin) [nM]","IC50, cell viability 72 h (AZD0156) [nM]","IC50, cell viability 72 h (AZD7648) [nM]","IC50, cell viability 72 h (AZD5991) [nM]","IC50, cell viability 72 h (AZD4320) [nM]","IC50, cell viability 72 h (Gemcitabine) [nM]","IC50, cell viability 72 h [1] [nM]","IC50, cell viability 72 h (Paclitaxel) [nM]","IC50, cell viability 72 h (Venetoclax) [nM]","IC50, cell viability 72 h (SN-38) [nM]","IC50, cell viability 72 h (AZD1390) [nM]"
ME-1 (Acute Myeloid Leukemia),> 10000,> 1000,> 10000,> 10000,> 2000,> 1,> 10000,> 10000,> 20000,315,> 10000,> 1000,> 10000,> 10000,> 1000,> 1000,> 10000,> 10000,> 10000,> 10000,> 10000,> 10000,> 1000,1260,> 10000,> 3000,> 10000,694,22.7,> 300,> 5000,> 3000,7.88,> 300,> 300
NB10 (Neuroblastoma),> 10000,> 1000,3740,6730,> 2000,> 1,> 10000,> 10000,18400,92,> 10000,> 1000,1950,> 10000,328,528,> 10000,5830,> 10000,56.6,> 10000,> 10000,664,892,> 10000,> 3000,> 10000,> 1000,> 1000,87.1,3880,273,> 1000,6.51,> 300
NCI-H82 (Small Cell Lung Carcinoma),> 10000,> 1000,3570,> 10000,> 2000,> 1,5800,> 10000,11800,18.2,1360,844,2450,> 10000,> 1000,254,2690,2110,> 10000,1090,> 10000,> 10000,931,622,> 10000,> 3000,> 10000,227,> 1000,32.8,> 5000,5.46,> 1000,22.7,> 300
NCI-H2085 (Non-Small Cell Lung Carcinoma),> 10000,> 1000,> 10000,> 10000,152,> 1,> 10000,> 10000,> 20000,67.3,> 10000,> 1000,> 10000,> 10000,> 1000,> 1000,> 10000,> 10000,> 10000,8070,3580,> 10000,> 1000,3000,> 10000,> 3000,> 10000,> 1000,> 1000,> 300,> 5000,382,> 1000,> 300,> 300
RO82-W-1 (Thyroid Gland Carcinoma),> 10000,> 1000,> 10000,> 10000,> 2000,> 1,> 10000,> 10000,> 20000,> 1000,> 10000,> 1000,> 10000,> 10000,> 1000,> 1000,> 10000,> 10000,> 10000,> 10000,> 10000,> 10000,> 1000,> 3000,> 10000,> 3000,> 10000,> 1000,> 1000,> 300,> 5000,> 3000,> 1000,> 300,> 300
